Entries after “also recorded” stand apart in the source; their conditions may differ. No end group written: not given here.
Test system: anti-(390-404) antibody
Assay: Solid-phase ELISA: binding of anti-(390-404) antibody to immobilized peptides and PC
Design: species or system rabbit
Procedure: To determine the immunospecificity of the rabbit antisera obtained in Example 2b, ELISA assays were performed. Briefly, 50 μl of either 50 μM peptide-(390-404) prepared in Example 1 or 10 μg/ml of PC or APC prepared in Example 2c in a buffer consisting of 0.05M sodium carbonate (Na2 CO3) and 0.02% NaN3 at pH 9.0 were admixed into the wells of microtiter plates. The plates were maintained at 37° C. for one hour to permit the antigens to become operatively affixed to the well walls. After washing the antigen-coated wells with TBS, the wells were blocked with 250 μl/well of 10% bovine serum albumin (BSA) (Sigma) in TBS for one hour at 22° C. The blocking solution was then removed and the wells were subsequently washed five times with 250 μl/well of maintenance buffer (0.05M Tris-HCl, 0.1M NaCl, 0.02% NaN3, 1 mg/ml BSA, 5 mM CaCl2, 0.01% Tween 20 at pH 7.4). Fifty μl of rabbit non-immune or specific antiserum serially diluted in maintenance buffer was then admixed to the washed wells and maintained for one hour at 37° C. to allow formation of a solid liquid phase immunoreaction products. The wells were then washed three times with maintenance buffer followed by admixture of 50 μl of 2.0 μg/ml of secondary antibody (polyclonal biotinylated goat-anti-rabbit-IgG) (Pierce Biochemicals) diluted in maintenance buffer to each well for the detection of immunoreactant products. The plates were maintained for 1 hour at 37° C. after which time the secondary antibody solution was removed. After washing the wells as described above, 50 μl of 2.0 μg/ml streptavidin-alkaline-phosphatase (Pierce Biochemicals) in maintenance buffer was admixed into each well and maintained for 30 minutes at 37° C. Detection of specific immunoreaction products was obtained by admixture of 150 μl/well of 5 mg/ml p-nitrophenylphosphate (PNPP) (Pierce Biochemicals) in 0.1M diethanolamine and 0.02% NaN3 at pH 9.6 followed by measurement of the change in absorbance at 405 nm over time using the EL312 Microplate Bio-Kinetics Reader and the KinetiCalc Software Program (Biotek Instruments, Inc., Vt.). Non-specific binding was considered as the measured absorbance in 10% BSA blocked wells which served as negative controls without the preceding coating of a specific protein or peptide. Under the described conditions, non-specific binding never exceeded more than 5% of the specific binding.
The specificity of immunoaffinity purified anti-(390-404) antibody towards peptide-(390-404) and PC was evaluated by measuring the binding in solid-phase ELISA of the antibody to immobilized peptides including -(384-398), -(390-404), -(396-410), -(404-390), and -K395A-(390-404) listed in Table 1 with their corresponding SEQ ID NO, and to PC. […]

In the case of “SGLLHNYGVYTKVSR-NH2 [peptide-(384-398), -SGLLHNYGVYTKVSR]”, the “binding of anti-(390-404) antibody to immobilized peptide or PC” value (solid-phase ELISA) is reported as “did not bind significantly; also recorded: did not significantly bind” and the “Anti-(390-404) (Absorbance/20 min.)” value (wells coated with 50 μM peptide or 10 μg/ml PC, 2 μg/ml anti-(390-404) antibody, mean of duplicates) is reported as 3 Absorbance/20 min.
